We go through 39 compounds from patent EP4008716A1, “NOVEL INHIBITORS OF INSULIN-LIKE GROWTH FACTOR 2 MRNA BINDING PROTEINS” (Martin-Luther-Universität Halle-Wittenberg, priority 2020, dated 2022).

The first assay has as its system ES-2 cells. Description: Cytotoxicity / cell vitality by cell confluency (IncuCyte live-cell imaging) relative to DMSO controls. As to conditions: Homo sapiens, ovarian cancer-derived ES-2 cells, 72 h post compound application, eleven concentrations, two-fold dilution from 20µM, mean of three independent studies. It counts as cell-based. On the procedure: All novel inhibitors were explored for their cytotoxic activity in ovarian cancer-derived ES-2 cells. In these cell models, BTYNB was prior shown to impair cell vitality and metastatic potential in vitro and cancer mouse models (15). For the respective studies ES-2 cells were plated and exposed to increasing concentration of the compounds and cell vitality was monitored by determining cell confluency relative to DMSO controls using an IncuCyte cell imaging system, essentially as described recently (15). For determining the impact of the developed compounds on ES-2 cell vitality, cells were cultured in Dulbecco's modified eagle medium (DMEM) containing phenol red, 4.5 g/L D-Glucose, 0.11 g/L sodium pyruvate, 10% (v/v) fetal bovine serum (FBS) and 2 mM GlutaMAX (Sigma-Aldrich, Darmstadt, Germany). Cells were maintained in under humidified conditions at 37 °C, 5% CO2. For cytotoxicity studies, cells were seeded in 96-well flat-bottom plates at 2 x 10^3 cells per well in 100 µL supplemented DMEM and incubated for 24 h prior to addition of BTYNB derivatives. Compounds were analyzed at eleven concentrations using a two-fold dilution with an initial compound concentration of 20µM in DMSO (solvent). Cells treated with 0.002% (v/v) DMSO served as controls. Cytotoxicity of compound concentrations was determined 72 h post compound application by monitoring cell confluency using an IncuCyte Systems for Live-Cell Imaging. Cell confluency was determined with the IncuCyte 2019B Rev2 software. Confluency of controls was set to 1 (100%) and altered confluency at distinct compound concentrations was calculated as relative confluency. The mean relative confluency at compound concentrations was analyzed in three independent studies with three technical replicates each. The mean values of three analyses were plotted against the logarithmic concentration of compounds and fitted by the non-linear module [Sigmoidal, 4PL, X is log(concentration)] using GraphPad Prism V9(86) for macOS. In Table 1 compounds with EC50 values, indicating the potency of the 58 developed compounds to impair cell vitality, are listed. […] Table 2: EC-values of the synthesized compounds of formula (I)
The EC50 is the concentration giving half of the maximal effect. Regarding `CC(C)c1cc(C(N)=O)c(NC(=O)Cc2ccc(Cl)c(Cl)c2)s1` [compound 42, 2-{[(3,4-Dichlorophenyl)acetyl]amino}-5-isopropyl-3-thiophenecarboxamide], the response was half-maximal at 2450 nM (EC50).

In turn, `NC(=O)c1cc(Cc2ccccc2)sc1NC(=O)c1ccccc1` [compound 37, 2-(Benzoylamino)-5-benzyl-3-thiophenecarboxamide] had an EC50 of 2270 nM.

`NC(=O)c1ccccc1NC(=O)c1ccccc1` [compound 14, N-(2-carbamoylphenyl)benzamide] yielded a concentration giving a half-maximal response (EC50) of 10500 nM.

`COc1ccc(C(=O)Nc2sc(C(C)C)cc2C(N)=O)cc1COc1ccccc1Cl` [compound 46, 2-({3-[(2-Chlorophenoxy)methyl]-4-methoxybenzoyl}amino)-5-isopropyl-3-thiophenecarboxamide] had a concentration for a half-maximal effect (EC50) of 2230 nM.

For the compound `NC(=O)c1ccccc1NC(=O)c1cc(Cl)cc(Cl)c1` [compound 18, N-[2-(aminocarbonyl)phenyl]-3,5-dichlorobenzamide], a half-maximal response (EC50) required 5140 nM.

In turn, `NC(=O)c1cc(Cc2ccccc2)sc1NC(=O)c1cccc(COc2ccc(Cl)cc2Cl)c1` [compound 50, 5-Benzyl-2-{3-[(2,4-dichlorophenoxy)methyl]benzamido}thiophene-3-carboxamide] gave an EC50 of 47 nM.

`NC(=O)c1cc(Cc2ccccc2)sc1NC(=O)c1ccc(COc2ccc(Br)cc2)cc1` [compound 43, 5-Benzyl-2-({4-[(4-bromophenoxy)methyl]benzoyl}amino)-3-thiophenecarboxamide] registered a half-maximal effective concentration (EC50) of 1190 nM.

Regarding `O=c1[nH]c(-c2ccc(OCc3ccccc3F)cc2)nc2ccccc12` [compound 4, 2-{4-[(2-Fluorobenzyl)oxy]phenyl}-4(3H)-quinazolinone], the response was half-maximal at 250 nM (EC50).

Compound `CNC(=O)c1ccccc1NC(=O)c1cc(C)c(C)s1` [compound 8, 4,5-Dimethyl-N-[2-(methylcarbamoyl)phenyl]thiophene-2-carboxamide] registered an EC50 of 2830 nM.

With `CCc1cc(C(=O)Nc2sccc2C(N)=O)cs1` [compound 15, 2-{[(5-Ethyl-3-thienyl)carbonyl]amino}-3-thiophenecarboxamide], a half-maximal effect (EC50) was put at 2950 nM.

For `Cc1ccc(C(=O)Nc2sc(Cc3ccccc3)cc2C(N)=O)o1` [compound 35, N-[3-(Aminocarbonyl)-5-benzyl-2-thienyl]-5-methyl-2-furamide], the response was half-maximal at 1340 nM (EC50).

The compound `NC(=O)c1c(NC(=O)c2ccc(Cl)s2)sc2c1CCCC2` [compound 30, 2-{[(5-Chloro-2-thienyl)carbonyl]amino}-4,5,6,7-tetrahydro-1-benzothiophene-3-carboxamide] showed an EC50 of 1470 nM.

`NC(=O)c1ccccc1NC(=O)c1ccc(Cl)s1` [compound 13, N-(2-carbamoylphenyl)-5-chlorothiophene-2-carboxamide] displayed an EC50 of 2300 nM.

In the case of `NC(=O)c1ccccc1NC(=O)CN1CCN(Cc2ccc(Cl)cc2)CC1` [compound 23, 2-({[4-(4-Chlorobenzyl)-1-piperazinyl]acetyl}amino)benzamide], a half-maximal effect (EC50) was put at 2990 nM.

`COc1ccc(C(=O)Nc2sc(Cc3ccccc3)cc2C(N)=O)cc1OCc1ccccc1Cl` [compound 48, 2-[3-(2-Chlorobenzyloxy)-4-methoxybenzamido]-5-benzylthiophene-3-carboxamide] yielded an EC50 of 1100 nM.

For the compound `Cc1ccc(C(=O)Nc2ccccc2C(N)=O)s1` [compound 2, N-[2-(aminocarbonyl)phenyl]-5-methyl-2-thiophenecarboxamide], a half-maximal response (EC50) required 2060 nM.

As to `NC(=O)c1ccccc1NC(=O)CN1CCN(Cc2ccc(F)cc2Cl)CC1` [compound 25, 2-({[4-(2-Chloro-4-fluorobenzyl)-1-piperazinyl]acetyl}amino)benzamide], the 50% effective concentration (EC50) was found to be 3170 nM.

Compound `COc1ccc(C(=O)Nc2sc(Cc3ccccc3)cc2C(N)=O)cc1COc1ccc(Cl)cc1Cl` [compound 47, 5-Benzyl-2-{3-[(2,4-dichlorophenoxy)methyl]-4-methoxybenzamido}thiophene-3-carboxamide] yielded an EC50 of 293 nM.

`NC(=O)c1cc(Cl)ccc1OCC(=O)c1ccc(Cl)s1` [compound 9, 5-chloro-2-[2-(5-chlorothiophen-2-yl)-2-oxoethoxy]benzamide] gave an EC50 of 1330 nM.

`NC(=O)c1cc(Cc2ccccc2)sc1NC(=O)c1ccc(Cl)s1` [compound 36, N-[3-(Aminocarbonyl)-5-benzyl-2-thienyl]-5-chloro-2-thiophenecarboxamide]: a half-maximal effect (EC50) was put at 1660 nM.

The compound `NC(=O)c1cc(Cc2ccccc2)sc1NC(=O)c1cccs1` [compound 31, N-[3-(aminocarbonyl)-5-benzyl-2-thienyl]-2-thiophenecarboxamide] came in with a concentration giving a half-maximal response (EC50) of 671 nM.

As for `COc1ccc(OCc2cc(-c3nc4sc(Cc5ccccc5)cc4c(=O)[nH]3)ccc2OC)cc1` [compound 5, 6-Benzyl-2-{4-methoxy-3-[(4-methoxyphenoxy)methyl]phenyl}thieno[2,3-d]pyrimidin-4(3H)-one], it took 1120 nM to reach a half-maximal effect (EC50).

`NC(=O)c1cc(Cc2ccccc2)sc1NC(=O)COc1ccccc1` [compound 40, 5-Benzyl-2-[(phenoxyacetyl)amino]-3-thiophenecarboxamide] came in with an EC50 of 2420 nM.

`NC(=O)c1ccccc1NC(=O)CN1CCN(Cc2c(Cl)cccc2Cl)CC1` [compound 22, 2-({[4-(2,6-Dichlorobenzyl)-1-piperazinyl]acetyl}amino)benzamide] came in with an EC50 of 6460 nM.

Turning to `COc1ccc(C(=O)Nc2sc(Cc3ccccc3)cc2C(N)=O)cc1COc1c(Cl)cccc1Cl` [compound 53, 5-Benzyl-2-{3-[(2,6-dichlorophenoxy)methyl]-4-methoxybenzamido}thiophene-3-carboxamide], it took 2600 nM to reach a half-maximal effect (EC50).

`NC(=O)c1cc(Cc2ccccc2)sc1NC(=O)CCc1ccccc1` [compound 39, 5-Benzyl-2-[(3-phenylpropanoyl)amino]-3-thiophenecarboxamide]: it took 6210 nM to reach a half-maximal effect (EC50).

Compound `COc1ccc(C(=O)Nc2sc(C(C)C)cc2C(N)=O)cc1COc1ccc(Br)cc1` [compound 58, 2-({3-[(4-Bromophenoxy)methyl]-4-methoxybenzoyl}amino)-5-isopropyl-3-thiophenecarboxamide] returned an EC50 of 8340 nM.

Compound `COc1cc(C=CC(=O)Nc2ccccc2C(N)=O)ccc1OCc1ccccc1` [compound 28, 2-({3-[4-(Benzyloxy)-3-methoxyphenyl]acryloyl}amino)benzamide] came in with a 50% effective concentration (EC50) of 1880 nM.

With `NC(=O)c1cc(Cc2ccccc2)sc1NC(=O)CN1CCN(Cc2ccccc2Cl)CC1` [compound 54, 2-{2-[4-(2-Chlorobenzyl)piperazin-1-yl]acetamido}-5-benzylthiophene-3-carboxamide], it took 7110 nM to reach a half-maximal effect (EC50).

For `NC(=O)c1ccsc1NC(=O)CN1CCN(Cc2ccc(Cl)c(Cl)c2)CC1` [compound 56, 2-{2-[4-(3,4-Dichlorobenzyl)piperazin-1-yl]acetamido}thiophene-3-carboxamide], it took 781 nM to reach a half-maximal effect (EC50).

Compound `Cc1cc2c(=O)[nH]c(Cc3ccccc3)nc2s1` [compound 7, 2-Benzyl-6-methylthieno[2,3-d]pyrimidin-4(3H)-one] returned a 50% effective concentration (EC50) of 4840 nM.

On to `CCc1c(C(=O)Nc2sc(Cc3ccccc3)cc2C(N)=O)csc1C` [compound 33, 5-Benzyl-2-{[(4-ethyl-5-methyl-3-thienyl)carbonyl]amino}-3-thiophenecarboxamide], for which the EC50 turned out to be 5060 nM.

With `COc1ccc(C(=O)Nc2ccccc2C(N)=O)cc1COc1ccccc1Cl` [compound 26, 2-{3-[(2-Chlorophenoxy)methyl]-4-methoxybenzamido}benzamide], the EC50 was 1100 nM.

With `NC(=O)c1ccccc1NC(=O)C1CCN(C(=O)c2cccs2)CC1` [compound 11, N-[2-(aminocarbonyl)phenyl]-1-(2-thienylcarbonyl)-4-piperidinecarboxamide], the concentration for a half-maximal effect (EC50) was 5180 nM.

Compound `NC(=O)c1ccccc1OCc1ccc(Cl)s1` [compound 1, 2-[(5-chlorothiophen-2-yl)methoxy]benzamide] came in with a concentration for a half-maximal effect (EC50) of 5610 nM.

`NC(=O)c1ccccc1NC(=O)CN1CCN(Cc2ccc(Cl)cc2Cl)CC1` [compound 21, 2-({[4-(2,4-Dichlorobenzyl)-1-piperazinyl]acetyl}amino)benzamide] gave an EC50 of 993 nM.

Consider `NC(=O)c1ccccc1NC(=O)c1cccc(COc2cccc(Cl)c2)c1` [compound 17, 2-({3-[(3-Chlorophenoxy)methyl]benzoyl}amino)benzamide], for which the concentration for a half-maximal effect (EC50) was 675 nM.

`NC(=O)c1cc(Cc2ccccc2)sc1NC(=O)c1ccc2c(c1)OCO2` [compound 38, N-[3-(aminocarbonyl)-5-benzyl-2-thienyl]-1,3-benzodioxole-5-carboxamide]: the midpoint of the response, the EC50, lay at 1300 nM.

The same assay, now with this note: ovarian cancer-derived ES-2 cells, 72 h post compound application, eleven concentrations, two-fold dilution from 20µM, mean of three independent studies.
With “2-({4-[(2-Bromophenoxy)methyl]benzoyl}amino)-5-isopropyl-3-thiophenecarboxamide [compound 57]”, the response was half-maximal at 3740 nM (EC50).
